# Assay results reported in patent US20240009191A1, “METHOD AND COMPOSITION FOR THE TREATMENT OF DISEASE” (DIMERIX BIOSCIENCE PTY LTD, priority 2019, published 2024).
# Molecular target: T1, AT1R-CXCR2 heteromer (Homo sapiens, UniProt P25025+P30556)
# T1 sequence (P25025 1-360): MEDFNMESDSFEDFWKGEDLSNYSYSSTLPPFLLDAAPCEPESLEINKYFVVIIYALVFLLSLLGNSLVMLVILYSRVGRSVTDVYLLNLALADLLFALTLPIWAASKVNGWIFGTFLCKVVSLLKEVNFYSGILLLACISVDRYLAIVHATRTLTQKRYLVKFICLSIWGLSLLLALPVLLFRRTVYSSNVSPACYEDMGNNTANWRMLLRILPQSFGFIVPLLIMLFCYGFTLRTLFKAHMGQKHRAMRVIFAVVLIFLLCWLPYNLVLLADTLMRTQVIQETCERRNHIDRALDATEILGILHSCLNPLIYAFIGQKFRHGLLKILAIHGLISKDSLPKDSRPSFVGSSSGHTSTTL
# T1 sequence (P30556 1-359): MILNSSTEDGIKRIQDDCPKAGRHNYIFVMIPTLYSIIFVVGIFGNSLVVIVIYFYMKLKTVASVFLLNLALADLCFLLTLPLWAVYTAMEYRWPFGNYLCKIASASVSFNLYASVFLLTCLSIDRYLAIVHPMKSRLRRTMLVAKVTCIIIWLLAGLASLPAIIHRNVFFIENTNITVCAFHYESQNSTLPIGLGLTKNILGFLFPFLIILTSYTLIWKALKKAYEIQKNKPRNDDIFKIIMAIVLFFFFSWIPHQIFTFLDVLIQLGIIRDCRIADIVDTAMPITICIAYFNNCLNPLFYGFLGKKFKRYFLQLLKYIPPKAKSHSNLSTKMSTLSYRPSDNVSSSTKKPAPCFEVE
# Experiment: BRET Gi coupling (Receptor-HIT), CXCR2/Rluc8, Venus/mGsi and HA-AT1R, HEK293FT cells
# Assay type: cell-based
# Method: HEK293FT cells were seeded in 6-well plates at a density of approximately 700,000 cells/well and maintained at 37° C., 5% CO2 in Complete Media (DMEM containing 0.3 mg/ml glutamine, 100 IU/ml penicillin and 100 μg/ml streptomycin (Gibco/Thermo Fisher)) supplemented with 10% fetal calf serum (FCS; Bovogen). […] BRET measurements were taken at 37° C. using the LUMlstarTM or CLARIOstarTM (BMG Labtech). Filtered light emissions were measured for 1 s in each of the 'donor wavelength window' (460-490 nm for LUMlstarTM or 410-490 nm for CLARIOstarTM) and 'acceptor wavelength window' (520-550 nm for LUMlstarTM or 520-620 nm for CLARIOstarTM). The BRET signal observed between interacting proteins is normalized by subtracting the background BRET ratio. This can be done in one of two ways (see Pfleger et al. (2006) Cell Signal 18:1664-1670; Pfleger et al. (2006) Nat Protoc 1:336-344): 1) the ratio of the 520-550 nm or 520-620 nm emission over the 460-490 nm or 410-490 nm emission for a cell sample containing only the donor construct is subtracted from the same ratio for a sample containing the interacting acceptor and donor fusion proteins; 2) the ratio of the 520-550 nm or 520-620 nm emission over the 460-490 nm or 410-490 nm emission for a cell sample treated with vehicle is subtracted from the same ratio for a second aliquot of the same cell sample treated with ligand. […]
substance,measurement,value
Angiotensin II [AngII],"ligand-induced BRET signal, CXCR2/Rluc8 and Venus/mGsi",approximately 0.05
